Assay results from ChEMBL document CHEMBL1201862, “PubChem BioAssay data set” (2004).
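Cultured in 96-well plates, cells were exposed to test compound for 48 hours across five concentrations. At the GI50, growth is halved.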 Activity calls are given as the source filed them. Cut-off read from the data, not from the text of the source: active = GI50 up to about 1.1 µM and inactive = higher.

Columns and labels:
Experiment in all cases: inhibition of tumour cell growth, NCI panel, 48 h
HCT-116 = system: HCT-116
DMS-273 = system: DMS-273
COLO 205 = system: COLO 205
HL-60 = system: HL-60
IGROV-1 = system: IGROV-1
SNB-75 = system: SNB-75
K562 = system: K562
HCC 2998 = system: HCC 2998
SK-OV-3 = system: SK-OV-3
CCRF-CEM = system: CCRF-CEM
UO-31 = system: UO-31
Malme-3M = system: Malme-3M
XF498 = system: XF498
CAKI-1 = system: CAKI-1
DLD-1 = system: DLD-1
NCI-H522 = system: NCI-H522
DMS-114 = system: DMS-114
ACHN = system: ACHN
SF-539 = system: SF-539
SK-MEL-28 = system: SK-MEL-28
NCI-H23 = system: NCI-H23
HCT-15 = system: HCT-15
786-0 = system: 786-0
SF-268 = system: SF-268
HOP-92 = system: HOP-92
UACC-62 = system: UACC-62
M14 = system: M14
SR = system: SR
NCI-H226 = system: NCI-H226
OVCAR-4 = system: OVCAR-4
M19-MEL = system: M19-MEL
RXF 631 = system: RXF 631
A498 = system: A498
SK-MEL-2 = system: SK-MEL-2
NCI-H460 = system: NCI-H460
MOLT-4 = system: MOLT-4
RPMI-8226 = system: RPMI-8226
HOP-62 = system: HOP-62
SN12C = system: SN12C
LXFL 529 = system: LXFL 529
SK-MEL-5 = system: SK-MEL-5
LOX IMVI = system: LOX IMVI
OVCAR-5 = system: OVCAR-5
U-251 = system: U-251
HT-29 = system: HT-29
EKVX = system: EKVX
OVCAR-3 = system: OVCAR-3
SNB-19 = system: SNB-19
OVCAR-8 = system: OVCAR-8
SNB-78 = system: SNB-78
KM12 = system: KM12
RXF 393 = system: RXF 393
SW-620 = system: SW-620
A549 = system: A549
TK-10 = system: TK-10
UACC-257 = system: UACC-257
KM-20L2 = system: KM-20L2
SF-295 = system: SF-295

Measured: GI50

Cc1[nH]c(=O)nc(N(CCO)/N=C/c2ccccc2Cl)c1C(=O)Nc1cc(Cl)cc(Cl)c1
> 100 µM: HCT-15
inactive: HCT-116 23 µM | DMS-273 43.8 µM | COLO 205 > 100 µM | HL-60 > 100 µM | IGROV-1 > 100 µM | SNB-75 17.7 µM | K562 37.3 µM | HCC 2998 86.5 µM | SK-OV-3 20.4 µM | CCRF-CEM 64.1 µM | UO-31 43.4 µM | Malme-3M > 10 µM | XF498 > 100 µM | CAKI-1 45.4 µM | DLD-1 53.1 µM | NCI-H522 23.1 µM | DMS-114 41.2 µM | ACHN 29.2 µM | SF-539 24.5 µM | SK-MEL-28 36.1 µM | NCI-H23 34.9 µM | 786-0 20.1 µM | SF-268 31.8 µM | HOP-92 23.9 µM | UACC-62 > 100 µM | M14 67.3 µM | SR 46.1 µM | NCI-H226 23.1 µM | OVCAR-4 31.6 µM | M19-MEL > 100 µM | RXF 631 29.2 µM | A498 24.6 µM | SK-MEL-2 48.9 µM | NCI-H460 27.9 µM | MOLT-4 77.3 µM | RPMI-8226 40.2 µM | HOP-62 26.5 µM | SN12C 43.7 µM | LXFL 529 35.2 µM

CCOc1ccc(NC(=O)CC2SC(Nc3ccc(C)cc3)=NC2=O)cc1 (stereo not drawn)
> 100 µM: HCT-15
inactive: HCT-116 > 100 µM | DMS-273 > 100 µM | COLO 205 > 100 µM | IGROV-1 > 100 µM | SNB-75 > 100 µM | SK-MEL-5 > 100 µM | LOX IMVI > 100 µM | OVCAR-5 > 100 µM | U-251 > 100 µM | HT-29 > 100 µM | SK-OV-3 > 100 µM | EKVX > 100 µM | OVCAR-3 > 100 µM | CCRF-CEM 29.2 µM | UO-31 > 100 µM | SNB-19 > 100 µM | Malme-3M > 100 µM | XF498 > 100 µM | OVCAR-8 > 100 µM | DLD-1 > 100 µM | NCI-H522 > 100 µM | DMS-114 > 100 µM | ACHN > 100 µM | SF-539 > 100 µM | SNB-78 > 100 µM | KM12 > 100 µM | RXF 393 > 100 µM | SK-MEL-28 > 100 µM | NCI-H23 > 100 µM | 786-0 > 100 µM | SW-620 > 100 µM | SF-268 > 100 µM | A549 > 100 µM | UACC-62 > 100 µM | M14 > 100 µM | SR 50.9 µM | OVCAR-4 > 100 µM | M19-MEL > 100 µM | RXF 631 > 100 µM | A498 > 100 µM | NCI-H460 > 100 µM | MOLT-4 35.2 µM | TK-10 > 100 µM | UACC-257 > 100 µM | KM-20L2 > 100 µM | SF-295 > 100 µM | HOP-62 > 100 µM | SN12C > 100 µM | LXFL 529 > 100 µM

Nc1ncnc2c1N=CN(Oc1ccccc1)N2
> 100 µM: HCT-15
inactive: HCT-116 > 100 µM | DMS-273 > 100 µM | COLO 205 > 100 µM | IGROV-1 > 100 µM | SNB-75 14 µM | SK-MEL-5 > 100 µM | K562 > 100 µM | OVCAR-5 > 100 µM | U-251 > 100 µM | HT-29 > 100 µM | SK-OV-3 > 100 µM | EKVX > 100 µM | OVCAR-3 > 100 µM | Malme-3M 18.3 µM | XF498 > 100 µM | OVCAR-8 > 100 µM | CAKI-1 > 100 µM | DLD-1 > 100 µM | DMS-114 > 100 µM | ACHN > 100 µM | SF-539 > 100 µM | SNB-78 > 100 µM | KM12 > 100 µM | RXF 393 > 100 µM | SK-MEL-28 > 100 µM | NCI-H23 > 100 µM | 786-0 > 100 µM | SW-620 > 100 µM | A549 > 100 µM | HOP-92 > 100 µM | UACC-62 > 100 µM | M14 > 100 µM | SR > 100 µM | NCI-H226 > 100 µM | OVCAR-4 > 100 µM | M19-MEL > 100 µM | RXF 631 > 100 µM | SK-MEL-2 > 100 µM | NCI-H460 > 100 µM | MOLT-4 > 100 µM | RPMI-8226 > 100 µM | TK-10 > 100 µM | UACC-257 > 100 µM | KM-20L2 > 100 µM | SF-295 > 100 µM | SN12C 21.5 µM | LXFL 529 > 100 µM

C[Si](C)(C)/C=C\CCCN1C(=O)CCC1=O
> 100 µM: HCT-15
inactive: HCT-116 > 100 µM | COLO 205 > 100 µM | HL-60 > 100 µM | IGROV-1 > 100 µM | SNB-75 62.5 µM | SK-MEL-5 93.8 µM | LOX IMVI > 100 µM | K562 60 µM | HCC 2998 > 100 µM | OVCAR-5 86.5 µM | U-251 > 100 µM | HT-29 > 100 µM | SK-OV-3 > 100 µM | EKVX > 100 µM | OVCAR-3 > 100 µM | CCRF-CEM 64.7 µM | UO-31 > 100 µM | SNB-19 > 100 µM | Malme-3M > 100 µM | XF498 > 100 µM | OVCAR-8 > 100 µM | NCI-H522 > 100 µM | DMS-114 71.1 µM | ACHN > 100 µM | SF-539 > 100 µM | SNB-78 > 100 µM | KM12 > 100 µM | SK-MEL-28 > 100 µM | NCI-H23 > 100 µM | 786-0 > 100 µM | SW-620 > 100 µM | SF-268 > 100 µM | A549 > 100 µM | HOP-92 > 100 µM | UACC-62 > 100 µM | M14 > 100 µM | SR > 100 µM | M19-MEL > 100 µM | RXF 631 > 100 µM | A498 > 100 µM | SK-MEL-2 > 100 µM | NCI-H460 > 100 µM | MOLT-4 > 100 µM | RPMI-8226 > 100 µM | TK-10 > 100 µM | UACC-257 > 100 µM | KM-20L2 > 100 µM | SF-295 > 100 µM | SN12C > 100 µM | LXFL 529 > 100 µM

CCN(CC)/[N+]([O-])=N/O
> 100 µM: HCT-15
inactive: HCT-116 > 100 µM | DMS-273 > 100 µM | HL-60 > 100 µM | IGROV-1 > 100 µM | SK-MEL-5 > 100 µM | LOX IMVI > 100 µM | K562 > 100 µM | HCC 2998 > 100 µM | OVCAR-5 > 100 µM | HT-29 > 100 µM | SK-OV-3 > 100 µM | EKVX > 100 µM | OVCAR-3 > 100 µM | CCRF-CEM > 100 µM | UO-31 > 100 µM | SNB-19 > 100 µM | XF498 18.9 µM | OVCAR-8 > 100 µM | CAKI-1 > 100 µM | NCI-H522 > 100 µM | ACHN > 100 µM | SF-539 > 100 µM | SNB-78 > 100 µM | KM12 > 100 µM | RXF 393 > 100 µM | SK-MEL-28 > 100 µM | NCI-H23 > 100 µM | SW-620 > 100 µM | SF-268 > 100 µM | A549 > 100 µM | HOP-92 > 100 µM | UACC-62 > 100 µM | M14 > 100 µM | SR > 100 µM | NCI-H226 > 100 µM | M19-MEL > 100 µM | RXF 631 > 100 µM | A498 > 100 µM | SK-MEL-2 > 100 µM | NCI-H460 > 100 µM | MOLT-4 > 100 µM | TK-10 > 100 µM | UACC-257 > 100 µM | KM-20L2 > 100 µM | SF-295 > 100 µM | HOP-62 > 100 µM | SN12C > 100 µM | LXFL 529 > 100 µM
